Among the data in PubChem BioAssay (NCI) are GI50 and TGI values, retold here.

Some test systems named below: CCRF-CEM leukemia; COLO 205 colon; DU-145 prostate; HOP-62 NSCLC; MDA-MB-231 breast; NCI-H226 lung; NCI/ADR-RES ovarian; OVCAR-3 ovarian; SK-MEL-28 melanoma; T-47D breast.
What all share (experiment): DTP human tumour cell line panel, 48 h

Several values for one entry are separate records, joined by “and”; a condition that tells them apart may be missing. Equal values may be shown once.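 1) Cells in 96-well plates. 2) Compound, 48 h, 5 concentrations. 3) Linear interpolation between surrounding doses. 4) Unreached endpoint = highest concentration. Abbreviation: GI50, concentration required for 50% inhibition of growth. TGI denotes the concentration required for complete inhibition of growth.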

One may read the GI50 as the concentration that inhibits growth by half. By TGI is commonly meant the concentration giving total growth inhibition. Regarding `CC1=C(C(=O)Nc2ccc3n[nH]c(C)c3c2)C(c2ccc(C(F)(F)F)cc2)CC(=O)N1` (centres undefined), the GI50 in the assay with CCRF-CEM leukemia is 11.8 µM; in the assay with COLO 205 colon, 7.64 µM; in the assay with DU-145 prostate, more than 25 µM; with HOP-62 NSCLC, 4.4 µM; in the assay with MDA-MB-231 breast, 15.9 µM; in the assay with NCI-H226 lung, 0.709 µM. Moreover, the GI50 in the assay with NCI/ADR-RES ovarian, in the assay with OVCAR-3 ovarian, in the assay with SK-MEL-28 melanoma and with T-47D breast was more than 25 µM in each case. In addition, the TGI in the assay on CCRF-CEM leukemia was more than 25 µM; in the assay with COLO 205 colon, more than 19.1 µM; in the assay with DU-145 prostate, more than 25 µM; in the assay with HOP-62 NSCLC it was more than 25 µM; with MDA-MB-231 breast it was more than 25 µM; in the assay with NCI-H226 lung it was more than 17.7 µM. Further, the TGI in the assay with NCI/ADR-RES ovarian, in the assay on OVCAR-3 ovarian, with SK-MEL-28 melanoma and in the assay on T-47D breast was more than 25 µM each time.

As for `CC1=NN(C(=O)c2ccccc2O)C(=O)/C1=C/c1ccc(O)cc1`, the concentration for total growth inhibition (TGI) was more than 100 µM in the assay on CCRF-CEM leukemia; more than 94.6 µM in the assay with COLO 205 colon; more than 100 µM in the assay with DU-145 prostate; more than 100 µM in the assay with HOP-62 NSCLC; more than 100 µM in the assay with MDA-MB-231 breast; 41.2 µM in the assay with NCI-H226 lung. The TGI in the assay on NCI/ADR-RES ovarian was 28.3 µM; in the assay with OVCAR-3 ovarian, 3.43 µM; with SK-MEL-28 melanoma it was more than 100 µM; in the assay with T-47D breast, more than 100 µM.

For the compound `O=C(Nc1ccc(Br)cc1F)c1cc(I)ccc1O`, the GI50 in the assay on CCRF-CEM leukemia was 3.58 µM; in the assay on COLO 205 colon, 12.8 µM; in the assay with DU-145 prostate, 3.89 µM; with HOP-62 NSCLC, 2.27 µM; with MDA-MB-231 breast it was 1.77 µM; with NCI-H226 lung, 1.9 µM. In addition, the GI50 was 2.63 µM with NCI/ADR-RES ovarian, 3.06 µM with OVCAR-3 ovarian, 2.62 µM in the assay on SK-MEL-28 melanoma and 1.92 µM in the assay with T-47D breast. In addition, the TGI in the assay with CCRF-CEM leukemia was more than 100 µM; in the assay on COLO 205 colon it was 30.8 µM; with DU-145 prostate, more than 100 µM; in the assay with HOP-62 NSCLC it was 8.15 µM; in the assay on MDA-MB-231 breast it was 6.28 µM; in the assay on NCI-H226 lung, 5.48 µM. The TGI with NCI/ADR-RES ovarian was 8.5 µM; in the assay with OVCAR-3 ovarian, more than 100 µM; with SK-MEL-28 melanoma, 11.3 µM; in the assay on T-47D breast, 6.35 µM.

As for `C[C@H]1CC[C@@]2(NC1)O[C@H]1C[C@H]3[C@@H]4CC[C@H]5C[C@@H](O)CC[C@]5(C)[C@H]4CC[C@]3(C)[C@H]1[C@@H]2C`, the GI50 in the assay on CCRF-CEM leukemia was 18.3 µM; in the assay on COLO 205 colon, 33.3 µM; in the assay with DU-145 prostate it was 30.3 µM; with HOP-62 NSCLC, 9.72 µM; with MDA-MB-231 breast, 7.26 µM; in the assay with NCI-H226 lung it was 13.8 µM. The GI50 in the assay on NCI/ADR-RES ovarian is 8.71 µM; with OVCAR-3 ovarian, 9.61 µM; in the assay with SK-MEL-28 melanoma, 17.9 µM; in the assay with T-47D breast, 12.3 µM. Further, the TGI with CCRF-CEM leukemia was 50 µM and > 100 µM; in the assay with COLO 205 colon, 50 µM and > 100 µM; with DU-145 prostate it was 50 µM and > 100 µM; with HOP-62 NSCLC, 19.4 µM and > 100 µM; in the assay with MDA-MB-231 breast, 15.9 µM and > 100 µM; with NCI-H226 lung it was 35.8 µM and > 100 µM. In addition, the TGI in the assay with NCI/ADR-RES ovarian is 22.4 µM and > 100 µM; with OVCAR-3 ovarian, 22.2 µM and > 100 µM; with SK-MEL-28 melanoma, 50 µM; in the assay with T-47D breast it was 50 µM and > 100 µM.

On to `C[C@@H]1[C@H](C)N1CC(O)Cn1ccnc1[N+](=O)[O-]` (some centres undefined), for which the TGI in the assay with CCRF-CEM leukemia, with COLO 205 colon, in the assay on DU-145 prostate, in the assay on HOP-62 NSCLC, in the assay with MDA-MB-231 breast and in the assay with NCI-H226 lung was more than 100 µM each time. Besides, the TGI with NCI/ADR-RES ovarian, with OVCAR-3 ovarian, with SK-MEL-28 melanoma and with T-47D breast was more than 100 µM each time.

As for `O=C1OCC2=C1C(c1cccc(Cl)c1)c1cc3c(cc1N2CCO)OCCO3` (centres undefined), the GI50 in the assay on CCRF-CEM leukemia is 0.112 µM; in the assay on COLO 205 colon, 0.0971 µM; in the assay on DU-145 prostate, 0.152 µM; in the assay on HOP-62 NSCLC it was 0.0787 µM; with MDA-MB-231 breast, 0.334 µM; with NCI-H226 lung, 0.0845 µM. Also, the GI50 in the assay with NCI/ADR-RES ovarian is 0.0631 µM; in the assay with OVCAR-3 ovarian, 0.0251 µM; in the assay on SK-MEL-28 melanoma it was 0.0839 µM; with T-47D breast it was 0.0677 µM. Besides, the TGI with CCRF-CEM leukemia is more than 100 µM; in the assay on COLO 205 colon, 0.651 µM; in the assay on DU-145 prostate, 1.31 µM; in the assay on HOP-62 NSCLC, 40.5 µM; with MDA-MB-231 breast, 4.26 µM; in the assay on NCI-H226 lung, 1.85 µM. Further, the total growth inhibition concentration (TGI) was 0.373 µM in the assay on NCI/ADR-RES ovarian, 0.0618 µM in the assay with OVCAR-3 ovarian, more than 100 µM in the assay on SK-MEL-28 melanoma and more than 100 µM in the assay with T-47D breast.

Regarding `NC(=O)N/N=C1/CCC(O)CC1CC(=O)O` (centres undefined), the total growth inhibition concentration (TGI) with CCRF-CEM leukemia, in the assay on COLO 205 colon, in the assay with DU-145 prostate, in the assay on HOP-62 NSCLC, with MDA-MB-231 breast and with NCI-H226 lung was more than 100 µM throughout. In addition, the TGI in the assay on NCI/ADR-RES ovarian, in the assay on OVCAR-3 ovarian, in the assay on SK-MEL-28 melanoma and in the assay with T-47D breast was more than 100 µM in each case.

`CC(=O)N1CC(C)(C)c2c(C)c(O)c(C)c(C)c21`: the concentration for total growth inhibition (TGI) with CCRF-CEM leukemia, with COLO 205 colon, in the assay on DU-145 prostate, in the assay on HOP-62 NSCLC, in the assay with MDA-MB-231 breast and in the assay on NCI-H226 lung was more than 100 µM in each case. Besides, the TGI with NCI/ADR-RES ovarian, with OVCAR-3 ovarian, in the assay on SK-MEL-28 melanoma and with T-47D breast was more than 100 µM each time.

As for `COC1CC(O[C@H]2CC[C@@]3(C)[C@H](CC[C@@H]4[C@@H]3CC[C@]3(C)[C@@H](C5=CC(=O)OC5)[C@@H](OC(C)=O)C[C@]43O)C2)OC(C)C1O` (some centres undefined), the GI50 in the assay with CCRF-CEM leukemia, with COLO 205 colon, with DU-145 prostate, with HOP-62 NSCLC, in the assay on MDA-MB-231 breast and in the assay with NCI-H226 lung was less than 0.01 µM in each case. For the same compound, the concentration for 50% growth inhibition (GI50) in the assay on NCI/ADR-RES ovarian, in the assay with OVCAR-3 ovarian, in the assay with SK-MEL-28 melanoma and with T-47D breast was less than 0.01 µM each time. In addition, the TGI is less than 0.01 µM with COLO 205 colon; less than 0.01 µM in the assay on DU-145 prostate; less than 0.01 µM with HOP-62 NSCLC; less than 0.0155 µM with MDA-MB-231 breast; less than 0.01 µM in the assay with NCI-H226 lung; less than 0.01 µM with NCI/ADR-RES ovarian. Moreover, the TGI with OVCAR-3 ovarian, with SK-MEL-28 melanoma and with T-47D breast was less than 0.01 µM each time.

Turning to `Cc1c(C(=O)Nc2ccccc2)sc2ncn(Cc3cccc(Cl)c3)c(=O)c12`, the GI50 in the assay with CCRF-CEM leukemia is 22.1 µM; in the assay on COLO 205 colon it was more than 100 µM; in the assay on DU-145 prostate, 34.9 µM; with HOP-62 NSCLC, 18.3 µM; with MDA-MB-231 breast, 12.1 µM; in the assay on NCI-H226 lung, 10.6 µM. For the same compound, the GI50 is 25.7 µM with NCI/ADR-RES ovarian, 41 µM in the assay with OVCAR-3 ovarian, more than 100 µM with SK-MEL-28 melanoma and 42.9 µM in the assay with T-47D breast. Moreover, the TGI in the assay with CCRF-CEM leukemia was 97.3 µM; in the assay on COLO 205 colon, more than 100 µM; with DU-145 prostate it was more than 100 µM; in the assay with HOP-62 NSCLC, 45.8 µM; in the assay on MDA-MB-231 breast, 38.2 µM; in the assay with NCI-H226 lung, 41.6 µM. For the same compound, the concentration for total growth inhibition (TGI) in the assay with NCI/ADR-RES ovarian, in the assay on OVCAR-3 ovarian, in the assay with SK-MEL-28 melanoma and in the assay on T-47D breast was more than 100 µM throughout.
